Assays:
[1] = Body weight of rats treated with EGCG; type: in vivo, rat
Experimental: (§1) Animal. Adult Sprague-Dawley (SD; Harlan) rats (body weight for male: 170-190 g; for female: 125-145 g) and lean and obese Zucker (Charles River Laboratory) rats (body weight for lean male: 240-260 g; for obese male: 420-440 g) were given free access to a standard rat chow diet and water unless indicated. Animal experimental protocols were approved by the University of Chicago institutional animal care and use committee. Rats were maintained at an ambient temperature of 25° C. under a photoperiod of 12-hour light and 12-hour dark.
(§2) In vivo treatment. EGCG and other catechins (>98% pure) were isolated from green tea (Camellia sinensis) in our laboratory as described in Liao et al., Biochem. Biophys. Res. Commun. 214: 833-838 (1995). Catechins were dissolved in water for oral administration and in sterile phosphate buffered saline for ip injection. Rats in control groups received vehicle only. Testosterone propionate (TP) and 5α-dihydrotestosterone propionate (DHTP) were dissolved in sesame oil and 4 mg in 0.5 ml sesame oil (16 mg/kg body weight) was injected subcutaneously daily, when indicated.
(§3) Food-restricted, male SD rats were given 12 g rat chow daily, which was about 50% of the amount consumed daily by each control rat. The body weight and the amount of food and water consumed were monitored daily. Food consumption was monitored in rats caged in groups of 3 to 5 animals by weighing food pellets every 24 hr. On the final day, rats were anesthetized with methoxyflurane and blood was collected by heart puncture. Sera were collected after centrifugation (10,000 g for 20 min at 4° C.) for biochemical analysis.
(§4) Statistical analysis. Data are expressed as the mean±sem. The unpaired Student's t-test was used to examine differences between control and the EGCG-injected groups. Analysis of variance and Student-Newman-Keuls multiple range test were used to examine differences among various groups. A probability level of 0.05 was used to indicate significance.
Body weight of subjects treated with EGCG. […] In male SD rats, the effect of EGCG on body weight was dose-dependent. […] Male SD rats injected daily ip with 26 and 53 mg EGCG/kg bw gained body weight by 17-24% relative to their initial body weight, but lost 5-9% relative to the control after 7 days of treatment. Whereas, male SD rats daily injected ip with 85 mg EGCG/kg bw lost 15-21% of their body weight relative to their initial weight and 30-41% relative to the control after 7 days of treatment. Control rats continued growth and increased their body weight by 25-34% relative to their initial weight (see Table 1). Female SD rats injected daily ip with 12.5 mg EGCG (about 92 mg/kg bw) lost 10% of their body weight relative to their initial weight and 29% relative to the control after 7 days of treatment. Therefore, a dose of EGCG of 70-92 mg/kg body weight was used in most experiments.

[2] = type: in vivo, rat
Experimental: as §1, §2, §4
Weight change in accessory sexual organs and other organs. An effect of EGCG dosage on the weight of accessory sexual organs was also observed. The weight of androgen-sensitive organs, such as ventral and dorsolateral prostates, seminal vesicles, coagulating glands, and preputial glands were reduced by 50-70% after 7 days of treatment with EGCG (about 85 mg/kg bw). Weight changes in these sexual organs were modulated in a catechin-specific manner. Relative to control animals sacrificed at the start of the experiment, these accessory sexual organs (except preputial gland) in male SD rats were reduced by 30-50% in weight after 7 days of EGCG treatment. […]

[3] = test system: sex hormones, leptin, IGF-I, insulin, LH and GH; test: Change in levels of sex hormones, leptin, IGF-I, insulin, LH and GH (radioimmunoassay of serum); type: in vivo, rat
Experimental: as §1, §2, §3
(§5) Biochemical analysis. For biochemical analysis, commercially available radioimmunoassay kits for IGF-I and testosterone (Diagnostic Systems Laboratory, Inc), LH and GH (Amersham), leptin and insulin (Linco Research Inc), and corticosterone (ICN) and analytical kits for glycerol and triglyceride (Sigma) and fatty acids (Roche Molecular Biochemicals) were used. Proximate composition analysis of rats was performed by COVANCE Laboratory (Madison, Wis.). Complete blood count and serum chemistry (e.g., cholesterols, glucose, and enzymatic activities) were performed by the Animal Resource Center at the University of Chicago.
as §4
Change in levels of sex hormones, leptin, IGF-I, insulin, LH and GH. […] After 7 days of treatment with EGCG (about 85 mg/kg bw), circulating testosterone was reduced by about 70% in male SD rats. Similarly, the circulating level of 17β-estradiol was reduced by 34% in females after 7 days of EGCG treatment. […] However, the pulsatile nature of GH secretion prevented us from making definite conclusions about changes in circulating levels of GH in these rats. The effect of EGCG on sex hormones and various peptide hormones investigated was not mimicked by ECG which has one less hydroxyl group than EGCG.

[4] = Exogenous androgen (TP or DHTP) co-administered with EGCG; type: in vivo, rat
Experimental: as §2
Effects of exogenous androgen reverses the effect of EGCG on accessory sexual organs. To determine if the reduction in weight of accessory sexual organs was due to EGCG-induced reduction in androgen levels, we injected male SD rats with androgen and/or EGCG.

[5] = Change in serum nutrients and proximate body composition; type: in vivo, rat
Experimental: as §1, §2, §3, §5, §4
Change in serum nutrients and proximate body composition.

[6] = Effect of EGCG on food intake; type: in vivo, rat
Experimental: as §1
In vivo treatment. EGCG and other catechins (>98% pure) were isolated from green tea (Camellia sinensis) in our laboratory as described in Liao et al., Biochem. Biophys. Res. Commun. 214: 833-838 (1995). Catechins were dissolved in water for oral administration and in sterile phosphate buffered saline for ip injection. Rats in control groups received vehicle only. […]
Food-restricted, male SD rats were given 12 g rat chow daily, which was about 50% of the amount consumed daily by each control rat. The body weight and the amount of food and water consumed were monitored daily. Food consumption was monitored in rats caged in groups of 3 to 5 animals by weighing food pellets every 24 hr. […]

[7] = Change in composition of blood (serum chemistry, complete blood count); conditions: rat, in vivo
Experimental: as §2, §3
Biochemical analysis. […]
Change in composition of blood. Male SD rats were treated with EGCG and ECG for 7 days and then their serum and whole blood was analyzed for various components. […]

[8] = female SD rats, 12.5 mg EGCG (about 92 mg/kg bw) ip daily, 7 days
[9] = male SD rats, 85 mg EGCG/kg bw ip daily, 7 days
[10] = male SD rats, 26 and 53 mg EGCG/kg bw ip daily, 7 days
[11] = male and female SD rats, 7 days
[12] = male SD and lean Zucker rats, within 7 to 8 days

O=C(OC1Cc2c(O)cc(O)cc2OC1c1cc(O)c(O)c(O)c1)c1cc(O)c(O)c(O)c1 (single isomer, unassigned; (-)) [EGCG, (−)epigallocatechin-3-gallate]
effectiveness in reducing body weight compared with 15 mg (about 85 mg/kg) ([1]; 5 or 10 mg EGCG (26 and 53 mg/kg body weight) injected daily, male SD rats): not effective or less effective | body weight loss ([1]; IP injection, SD male and female rats, within 2 to 7 days of treatment): caused acute body weight loss | body weight lost relative to initial weight [1, 8]: 10% | body weight lost relative to the control [1, 8]: 29% | body weight lost relative to initial weight [1, 9]: 15-21% | body weight lost relative to the control [1, 9]: 30-41% | body weight gain relative to initial body weight [1, 10]: 17-24% | body weight lost relative to the control [1, 10]: 5-9% | effect on body weight, dose dependence ([1]; male SD rats, ip daily): dose-dependent | reduction in weight of androgen-sensitive organs (ventral and dorsolateral prostates, seminal vesicles, coagulating glands, preputial glands) ([2]; about 85 mg/kg bw, 7 days, male rats): 50-70% | reduction in weight of estrogen-sensitive organs (uterus and ovary) ([2]; female SD rats, 7 days of treatment): about 50% | reduction in weight of accessory sexual organs (except preputial gland) relative to control animals sacrificed at the start of the experiment ([2]; male SD rats, 7 days of treatment): 30-50% | reduction of circulating level of 17β-estradiol ([3]; female SD rats, 7 days): 34% | serum level of GH ([3]; female SD rats, 7 days): reduced in females | dose dependence of effects on serum testosterone, leptin, IGF-I and insulin ([3]; male SD rats): Dose-dependent effects | serum level of GH ([3]; male SD rats, 7 days): increased in males | reduction of circulating testosterone ([3]; male SD rats, about 85 mg/kg bw, 7 days): about 70% | blood level of IGF-I [3, 11]: significant reduction | blood level of insulin [3, 11]: significant reduction | blood level of leptin [3, 11]: significant reduction | reduction of serum level of LH [3, 11]: 40-50% | EGCG-induced body weight loss, food intake restriction, decreases in circulating leptin, IGF-I, insulin and LH, increase in GH under androgen administration ([4]; male SD rats, androgen co-administered): androgen administration was not able to prevent | prostate weight loss ([4]; male rats injected daily with TP or DHTP (16 mg/kg sc)): did not cause prostate weight loss | percent water and protein content (proximate composition) ([5]; SD rats treated daily for 7 days): no change | carbohydrate content (proximate composition) ([5]; SD rats treated daily for 7 days, 2.5% in control): 1.3% | fat content (proximate composition) ([5]; SD rats treated daily for 7 days, 4.1% in control): 1.4% | decrease of abdominal fat [5, 12]: 20-35% | decrease of epididymal fat [5, 12]: not epididymal fat | decrease of subcutaneous fat [5, 12]: 40-70% | change in serum cholesterol ([5]; male SD rats): −20% | change in serum glucose ([5]; male SD rats): −32% | change in serum lipids ([5]; male SD rats): −15% | change in serum triglycerides ([5]; male SD rats): −46% | serum level of protein, fatty acids and glycerol ([5]; male SD rats): not altered | loss of abdominal fat ([5]; obese male Zucker rats, within 4 days): 20% | less food consumed than control rats ([6]; SD male and female rats, ip): 50-60% | effects of EGCG when administered orally compared with intraperitoneally ([6]; oral administration): diminished or absent | serum total protein, albumin, blood urea nitrogen, creatine, PO4 3−, Na+, K+, Ca2+, Cl−, lactate dehydrogenase, alanine aminotransferase, aspartate aminotransferase, γ-glutamyltranspeptidase [7]: Neither EGCG nor structurally-related ECG caused significant changes

(−)epicatechin-3-gallate [ECG, reference compound]
effect on sex hormones and various peptide hormones, compared with the effect of EGCG ([3]; rats): not mimicked
